Reference: patent US20070004660A1, “Synergistic Modulation of Flt3 Kinase Using Alkylquinolines and Alkylquinazolines” (priority 2005, published 2007)
Structures can show the parent of a compound that is named as a salt.

System: MV4-11 cells
Assay: Inhibition of MV4-11 cell proliferation (CellTiterGlo, 72 h)
Assay type: cell-based
Settings: Homo sapiens; 72 h growth inhibition; uncertainty ±20%

Row | SMILES | IC50
1 | O=C(Nc1ccc(N2CCCC2)cc1)N1CCC(c2ncnc3cc(O[C@H]4CCOC4)ccc23)CC1 [Compound 190, (S)-4-[7-(Tetrahydro-furan-3-yloxy)-quinazolin-4-yl]-piperidine-1-carboxylic acid (4-pyrrolidin-1-yl-phenyl)-amide] | 88 nM
2 | O=C(Nc1ccc(N2CCCC2)cc1)N1CCC(c2ncnc3cc(O[C@@H]4CCOC4)ccc23)CC1 [Compound 191, (R)-4-[7-(Tetrahydro-furan-3-yloxy)-quinazolin-4-yl]-piperidine-1-carboxylic acid (4-pyrrolidin-1-yl-phenyl)-amide] | 71 nM
3 | COc1cc2ncnc(C3CCN(C(=O)Nc4ccc(N5CCOCC5)cc4)CC3)c2cc1OC [Example 18, 4-(6,7-Dimethoxy-quinazolin-4-yl)-piperidine-1-carboxylic acid (4-morpholin-4-yl-phenyl)-amide] | 137 nM
4 | CS(=O)(=O)N1CCN(CCCOc2ccc3c(C4CCN(C(=O)Nc5ccc(N6CCCC6)cc5)CC4)ncnc3c2)CC1 [Example 164, 4-{7-[3-(4-Methanesulfonyl-piperazin-1-yl)-propoxy]-quinazolin-4-yl}-piperidine-1-carboxylic acid (4-pyrrolidin-1-yl-phenyl)-amide] | 36 nM
5 | CC(=O)N1CCN(c2ccc3c(C4CCN(C(=O)Nc5ccc(N6CCCC6)cc5)CC4)ncnc3c2)CC1 [Example 166, 4-[7-(4-Acetyl-piperazin-1-yl)-quinazolin-4-yl]-piperidine-1-carboxylic acid (4-pyrrolidin-1-yl-phenyl)-amide] | 17 nM
6 | COc1cc2ncnc(C3CCN(C(=O)Nc4ccc(OC5CCC5)nc4)CC3)c2cc1OC [Example 17, 4-(6,7-Dimethoxy-quinazolin-4-yl)-piperidine-1-carboxylic acid (6-cyclobutoxy-pyridin-3-yl)-amide] | 31 nM
7 | CN1CCC[C@H]1COc1ccc2c(C3CCN(C(=O)Nc4ccc(N5CCCC5)cc4)CC3)ncnc2c1 [Example 151, (S)-4-[7-(1-Methyl-pyrrolidin-2-ylmethoxy)-quinazolin-4-yl]-piperidine-1-carboxylic acid (4-pyrrolidin-1-yl-phenyl)-amide] | 193 nM
8 | O=C(Nc1ccc(N2CCCC2)cc1)N1CCC(c2ncnc3cc(N4CCN(c5ncccn5)CC4)ccc23)CC1 [Compound 193, 4-[7-(4-Pyrimidin-2-yl-piperazin-1-yl)-quinazolin-4-yl]-piperidine-1-carboxylic acid (4-pyrrolidin-1-yl-phenyl)-amide] | 16 nM
9 | CN1CCCN(c2ccc3c(C4CCN(C(=O)Nc5ccc(N6CCOCC6)cc5)CC4)ncnc3c2)CC1 [Example 138, 4-[7-(4-Methyl-[1,4]diazepan-1-yl)-quinazolin-4-yl]-piperidine-1-carboxylic acid (4-morpholin-4-yl-phenyl)-amide] | 220 nM
10 | CS(=O)(=O)N1CCN(c2ccc3c(C4CCN(C(=O)Nc5ccc(N6CCOCC6)cc5)CC4)ncnc3c2)CC1 [Example 142, 4-[7-(4-Methanesulfonyl-piperazin-1-yl)-quinazolin-4-yl]-piperidine-1-carboxylic acid (4-morpholin-4-yl-phenyl)-amide] | 88 nM
11 | COc1cc2ncnc(C3CCN(C(=O)Nc4ccc(OC(C)C)cc4)CC3)c2cc1OC [Example 1, 4-(6,7-Dimethoxy-quinazolin-4-yl)-piperidine-1-carboxylic acid (4-isopropoxy-phenyl)-amide hydrochloride] | 88 nM
12 | COc1cc2ncnc(C3CCN(C(=O)Nc4ccc(CO)cc4)CC3)c2cc1OC [Example 22, 4-(6,7-Dimethoxy-quinazolin-4-yl)-piperidine-1-carboxylic acid (4-hydroxymethyl-phenyl)-amide] | > 10000 nM
13 | CC(C)Oc1ccc(NC(=O)N2CCC(c3ncnc4ccc(N5CCN(C)CC5)cc34)CC2)cc1 [Example 131, 4-[6-(4-Methyl-piperazin-1-yl)-quinazolin-4-yl]-piperidine-1-carboxylic acid (4-isopropoxy-phenyl)-amide] | 2800 nM
14 | O=C(Nc1ccc(N2CCCC2)cc1)N1CCC(c2ncnc3cc(OCCO)ccc23)CC1 [Example 169, 4-[7-(2-Hydroxy-ethoxy)-quinazolin-4-yl]-piperidine-1-carboxylic acid (4-pyrrolidin-1-yl-phenyl)-amide] | 32 nM
